Experiments:
[1] = Acute porcine cardiopulmonary bypass (CPB) model, postoperative bleeding; assay type: in vivo; settings: pigs
Experimental: A randomized, double-blinded study using an acute porcine cardiopulmonary bypass (CPB) model was used to investigate the effect of KPI185-1 on postoperative bleeding. Sixteen pigs (55-65 kg) underwent 60 minutes of hypothermic (28° C.) open-chest CPB with 30 minutes of cardioplegic cardiac arrest. Pigs were randomized against a control solution of physiological saline (NS; n=8) or KPI-185 (n=8) groups. During aortic cross-clamping, the tricuspid valve was inspected through an atriotomy which was subsequently repaired. Following reversal of heparin with protamine, dilateral thoracostomy tubes were placed and shed blood collected for 3 hours. Shed blood volume and hemoglobin (Hgb) loss were calculated from total chest tube output and residual intrathoracic blood at time of sacrifice.

activated factor XII = target: T1, activated factor XII (Homo sapiens, UniProt P00748); settings: cited from earlier work
T1 sequence (P00748 373-615 limits assumed): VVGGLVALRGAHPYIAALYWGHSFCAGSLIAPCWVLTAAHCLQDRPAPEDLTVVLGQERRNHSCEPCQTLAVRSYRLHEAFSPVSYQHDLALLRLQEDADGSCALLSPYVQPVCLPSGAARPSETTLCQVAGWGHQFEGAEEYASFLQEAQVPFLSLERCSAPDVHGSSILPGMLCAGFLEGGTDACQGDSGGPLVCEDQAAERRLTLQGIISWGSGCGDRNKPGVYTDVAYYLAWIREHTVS

elastase = settings: cited from earlier work
[2] = CPB; cited from earlier work

Substance | Total Hgb loss ([1]; after CPB, p=0.0005 vs. saline) [gm] | Thoracostomy drainage Hgb ([1]; at 30 minutes, p=0.004 vs. control) [gm/dl] | Thoracostomy drainage Hgb ([1]; at 60 minutes, p=0.0002 vs. control) [gm/dl] | Total blood loss ([1]; shed blood collected for 3 hours after CPB plus residual intrathoracic blood, p=0.009 vs. saline) [mL] | inhibition of activated factor XII (activated factor XII) | inhibition of elastase (elastase) | blood loss following bypass [2] | neutrophil activation [2]
KPI (−4→57; M15A, S17F) DD185: KPI (−4→57) variant with M15A, S17F, found by phage display on kallikrein, expressed in yeast from pDD185 | 13.59±4.26 | 4.41±1.45 | 5.26±1.04 | 245.75 ± 66.24 |  |  |  | 
aprotinin |  |  |  |  | does not inhibit activated factor XII | neither native aprotinin nor native KPI significantly inhibits elastase | significant reduction in blood loss | does not appear to significantly reduce neutrophil activation
